Measured values published in patent publication US12252488B2 (Nimbus Saturn, Inc., priority 2021, dated 2025).

The compounds below were run against T1, HPK1 (Homo sapiens, UniProt Q92918) (assay: HPK1 biochemical enzyme assay (microfluidic mobility shift assay)). Settings: 1000 uM (1 mM) ATP; Caliper mobility shift; 1.5 nM HPK1; 30 min preincubation; read-out: HPK1 1000UMATP caliper IC50.
T1 construct: purchased Invitrogen
Summary of the method: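 IC50 values, grouped into activity categories, come from 10-point titrations (top final 3 μM) preincubated 30 min with 1.5 nM enzyme and substrate at pH 7.4. ATP (1 mM), substrate (1 μM) and MgCl2 (5 mM) then added; after 60 min at RT, product separated by microfluidic mobility shift.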

T1 sequence (Q92918 whole entry): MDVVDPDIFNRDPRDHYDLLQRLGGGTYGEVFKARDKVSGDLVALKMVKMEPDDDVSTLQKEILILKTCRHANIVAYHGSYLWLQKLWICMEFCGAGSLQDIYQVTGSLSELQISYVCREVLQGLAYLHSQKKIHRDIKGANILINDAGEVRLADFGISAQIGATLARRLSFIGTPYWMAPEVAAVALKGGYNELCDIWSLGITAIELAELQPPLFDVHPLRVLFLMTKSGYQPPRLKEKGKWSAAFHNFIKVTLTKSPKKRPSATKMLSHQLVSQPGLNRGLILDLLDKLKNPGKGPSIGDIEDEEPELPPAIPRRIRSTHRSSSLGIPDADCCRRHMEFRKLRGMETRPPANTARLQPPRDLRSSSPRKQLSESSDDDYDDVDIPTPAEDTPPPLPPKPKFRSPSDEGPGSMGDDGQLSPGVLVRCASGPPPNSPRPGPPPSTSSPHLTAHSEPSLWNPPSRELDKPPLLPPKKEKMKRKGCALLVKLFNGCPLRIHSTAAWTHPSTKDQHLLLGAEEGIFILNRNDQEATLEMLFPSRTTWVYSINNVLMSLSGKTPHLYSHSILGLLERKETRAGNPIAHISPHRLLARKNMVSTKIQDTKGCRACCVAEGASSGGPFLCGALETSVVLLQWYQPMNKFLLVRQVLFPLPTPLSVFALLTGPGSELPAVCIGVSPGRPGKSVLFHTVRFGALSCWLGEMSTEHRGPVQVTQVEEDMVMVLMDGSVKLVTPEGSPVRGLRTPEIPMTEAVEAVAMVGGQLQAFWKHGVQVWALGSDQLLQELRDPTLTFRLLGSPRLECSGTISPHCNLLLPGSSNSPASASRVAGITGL

Q: With `CC(C)c1ccc(F)c(-c2cc(Nc3ccc(N4[C@@H](C)COC[C@@H]4C)cn3)c3c(=O)[nH]ccc3n2)c1` [I-129, 4-[[5-[(3S,5S)-3,5-dimethyl-morpholin-4-yl]-2-pyridyl]amino]-2-(2-fluoro-5-isopropyl-phenyl)-6H-1,6-naphthyridin-5-one] as the compound, how does the IC50 read?
A: 100 to 1000 nM

Q: With `O=c1[nH]ccc2nc(-c3cc(C4CCCN4)ccc3F)cc(Nc3ccc(N4CCC(O)CC4)cn3)c12` (centres unmarked) [I-243, 2-(2-fluoro-5-pyrrolidin-2-yl-phenyl)-4-[[5-(4-hydroxy-1-piperidyl)-2-pyridyl]amino]-6H-1,6-naphthyridin-5-one] as the compound, how does the IC50 read?
A: 100 to 1000 nM

Q: For `O=c1[nH]ccc2nc(-c3cc4cc[nH]c4cc3F)cc(Nc3ccc(N4CCC(O)CC4)cn3)c12` [I-107, 2-(6-fluoro-1H-indol-5-yl)-4-[[5-(4-hydroxy-1-piperidyl)-2-pyridyl]amino]-6H-1,6-naphthyridin-5-one], which IC50 is on record?
A: 100 to 1000 nM

Q: For `O=c1[nH]ccc2nc(-c3ccccc3F)cc(Nc3ccc(N4CCC(O)CC4)cn3)c12` [I-64, 2-(2-fluoro-phenyl)-4-[[5-(4-hydroxy-1-piperidyl)-2-pyridyl]amino]-6H-1,6-naphthyridin-5-one], which IC50 is on record?
A: 100 to 1000 nM

Q: How did the IC50 turn out when `O=C(c1ccc(-c2cc(Nc3ccc(N4CCC(O)CC4)cn3)c3c(=O)[nH]ccc3n2)c(F)c1)N1CC2C(C1)C2(F)F` (centres unmarked) [I-138, 2-[4-(6,6-difluoro-3-azabicyclo [3.1.0]hexane-3-carbonyl)-2-fluoro-phenyl]-4-[[5-(4-hydroxy-1-piperidyl)-2-pyridyl]amino]-6H-1,6-naphthyridin-5-one] was run?
A: 100 to 1000 nM

Q: For `Cc1c[nH]c(=O)c2c(Nc3ccc(N4CCC(O)CC4)cn3)cc(-c3ccc(C(=O)N4CCCCC4)cc3F)nc12` [I-146, 2-[2-fluoro-4-(piperidine-1-carbonyl)phenyl]-4-[[5-(4-hydroxy-1-piperidyl)-2-pyridyl]amino]-8-methyl-6H-1,6-naphthyridin-5-one], which IC50 is on record?
A: 100 to 1000 nM

Q: How did the IC50 turn out when `COc1cc(-c2cc(Nc3ccc(N4CCC(O)CC4)cn3)c3c(=O)[nH]ccc3n2)c(F)cc1C(=O)N1CCCC1` [I-206, 2-[2-fluoro-5-methoxy-4-(pyrrolidine-1-carbonyl)phenyl]-4-[[5-(4-hydroxy-1-piperidyl)-2-pyridyl]amino]-6H-naphthyridin-5-one] was run?
A: ≤ 100 nM

Q: `CN(C(=O)C1(C)COC1)c1ccc(-c2cc(Nc3ccc(N4CCC(O)CC4)cn3)c3c(=O)[nH]ccc3n2)c(F)c1` [I-210, N-[3-fluoro-4-[4-[[5-(4-hydroxy-1-piperidyl)-2-pyridyl]amino]-5-oxo-6H-1,6-naphthyridin-2-yl]phenyl]-N,3-dimethyl-oxetane-3-carboxamide] was tested. Which IC50 did it give?
A: ≤ 100 nM

Q: How did the IC50 turn out when `O=C(c1ccc(-c2cc(Nc3ccc(N4CCOCC4)cn3)c3c(=O)[nH]ccc3n2)c(F)c1)N1CCCCC1` [I-155, 2-[2-fluoro-4-(piperidine-1-carbonyl)phenyl]-4-[(5-morpholino-2-pyridyl)amino]-6H-1,6-naphthyridin-5-one] was run?
A: > 1000 nM

Q: Which IC50 does the source give for `COC1CCN(c2ccc(Nc3cc(-c4ccc(NC(=O)C5CCCCC5)cc4F)nc4cc[nH]c(=O)c34)nc2)CC1` [I-204, N-[3-fluoro-4-[4-[[5-(4-methoxy-1-piperidyl)-2-pyridyl]amino]-5-oxo-6H-1,6-naphthyridin-2-yl]phenyl] cyclohexane carboxamide] here?
A: ≤ 100 nM

Q: How did the IC50 turn out when `CC(C)c1cc(Nc2ccc(N3CCOCC3)cn2)c2c(=O)[nH]ccc2n1` [I-22, 2-isopropyl-4-[(5-morpholino-2-pyridyl)amino]-6H-1,6-naphthyridin-5-one] was run?
A: ≤ 100 nM

Q: With `COc1ccc(F)c(-c2cc(Nc3ccc(N4CCC(O)CC4)cn3)c3c(=O)[nH]ccc3n2)c1` [I-42, 2-(2-fluoro-5-methoxyphenyl)-4-((5-(4-hydroxypiperidin-1-yl)pyridin-2-yl)amino)-1,6-naphthyridin-5(6H)-one] as the compound, how does the IC50 read?
A: 100 to 1000 nM

Q: `CN1CCN(C(=O)c2ccc(-c3cc(Nc4ccc(N5CCC(O)CC5)cn4)c4c(=O)[nH]ccc4n3)c(F)c2)CC1` [I-131, 2-[2-fluoro-4-(4-methyl-piperazine-1-carbonyl)phenyl]-4-[[5-(4-hydroxy-1-piperidyl)-2-pyridyl]amino]-6H-1,6-naphthyridin-5-one] was tested. Which IC50 did it give?
A: 100 to 1000 nM

Q: For `CN(C)C1CCc2cc(F)c(-c3cc(Nc4ccc(N5CCC(O)CC5)cn4)c4c(=O)[nH]ccc4n3)cc21` (centres unmarked) [I-244, 2-[3-(dimethyl-amino)-6-fluoro-indan-5-yl]-4-[[5-(4-hydroxy-1-piperidyl)-2-pyridyl]amino]-6H-1,6-naphthyridin-5-one], which IC50 is on record?
A: ≤ 100 nM

Q: With `O=c1[nH]cnc2cc(-c3c(F)cccc3F)nc(Nc3ccc(N4CCC(O)CC4)cn3)c12` [I-13, 7-(2,6-difluoro-phenyl)-5-[[5-(4-hydroxy-1-piperidyl)-2-pyridyl]amino]-3H-pyrido[4,3-d] pyrimidin-4-one] as the compound, how does the IC50 read?
A: 100 to 1000 nM

Q: `CC(C)(C#N)c1ccc(-c2cc(Nc3ccc(N4CCC(O)CC4)cn3)c3c(=O)[nH]ccc3n2)c(F)c1` [I-149, 2-[3-fluoro-4-[4-[[5-(4-hydroxy-1-piperidyl)-2-pyridyl]amino]-5-oxo-6H-1,6-naphthyridin-2-yl]phenyl]-2-methyl-propane-nitrile] was tested. Which IC50 did it give?
A: 100 to 1000 nM

Q: With `O=C(c1ccc(-c2cc(Nc3ccc(N4CCC(O)CC4)cn3)c3c(=O)[nH]ccc3n2)c(F)c1)N1CCNCC1` [I-119, 2-[2-fluoro-4-(piperazine-1-carbonyl)phenyl]-4-[[5-(4-hydroxy-1-piperidyl)-2-pyridyl]amino]-6H-1,6-naphthyridin-5-one] as the compound, how does the IC50 read?
A: 100 to 1000 nM

Q: For `O=C(Nc1ccc(-c2cc(Nc3ccc(N4CCC(O)CC4)cn3)c3c(=O)[nH]ccc3n2)c(F)c1)C1CCCCC1` [I-111, N-[3-fluoro-4-[4-[[5-(4-hydroxy-1-piperidyl)-2-pyridyl]amino]-5-oxo-6H-1,6-naphthyridin-2-yl]phenyl] cyclohexane carboxamide], which IC50 is on record?
A: > 1000 nM

Q: How did the IC50 turn out when `O=c1[nH]ccc2nc(-c3ccc(CN4CCCCC4)cc3F)cc(Nc3ccc(N4CCC(O)CC4)cn3)c12` [I-127] was run?
A: 100 to 1000 nM

Q: Which IC50 does the source give for `CN1CCc2c(ccc(F)c2-c2cc(Nc3ccc(N4CCC(O)CC4)cn3)c3c(=O)[nH]ccc3n2)C1` [I-268, 2-(6-fluoro-2-methyl-3,4-dihydro-1H-isoquinolin-5-yl)-4-[[5-(4-hydroxy-1-piperidyl)-2-pyridyl]amino]-6H-1,6-naphthyridin-5-one] here?
A: > 1000 nM

Q: Which IC50 does the source give for `O=c1[nH]ccc2nc(N3CCC4(CCCNC4)CC3)cc(Nc3ccc(N4CCC(O)CC4)cn3)c12` [I-239, 2-(2,9-diazaspiro [5.5]undecan-9-yl)-4-[[5-(4-hydroxy-1-piperidyl)-2-pyridyl]amino]-6H-1,6-naphthyridin-5-one] here?
A: 100 to 1000 nM

Q: Which IC50 does the source give for `CCNC(=O)C(C)(C)c1ccc(Nc2cc(-c3c(F)cccc3F)nc3cc[nH]c(=O)c23)nc1` [I-46, 2-[6-[[2-(2,6-difluoro-phenyl)-5-oxo-6H-1,6-naphthyridin-4-yl]amino]-3-pyridyl]-N-ethyl-2-methyl-propanamide] here?
A: 100 to 1000 nM

Q: `O=c1[nH]ccc2nc(-c3c(F)ccc4c3CCNC4)cc(Nc3ccc(N4CCC(O)CC4)cn3)c12` [I-220, 2-(6-fluoro-1,2,3,4-tetrahydro-isoquinolin-5-yl)-4-[[5-(4-hydroxy-1-piperidyl)-2-pyridyl]amino]-6H-1,6-naphthyridin-5-one] was tested. Which IC50 did it give?
A: ≤ 100 nM

Q: `O=C(c1ccc(-c2cc(Nc3ccc(N4CCC(O)CC4)cn3)c3c(=O)[nH]ccc3n2)c(F)c1)N1CCCC1` [I-115, 2-[2-fluoro-4-(pyrrolidine-1-carbonyl)phenyl]-4-[[5-(4-hydroxy-1-piperidyl)-2-pyridyl]amino]-6H-1,6-naphthyridin-5-one] was tested. Which IC50 did it give?
A: ≤ 100 nM

Q: `CN1C(=O)Cc2cc(-c3cc(Nc4ccc(N5CCC(O)CC5)cn4)c4c(=O)[nH]ccc4n3)cnc21` [I-213, 4-[[5-(4-hydroxy-1-piperidyl)-2-pyridyl]amino]-2-(1-methyl-2-oxo-3H-pyrrolo[2,3-b]pyridin-5-yl)-6H-1,6-naphthyridin-5-one] was tested. Which IC50 did it give?
A: 100 to 1000 nM

Q: With `COc1cc(-c2cc(Nc3ccc(N4CCNCC4)cn3)c3c(=O)[nH]ccc3n2)ccc1C(=O)N1CCCCC1` [I-187, 2-[3-methoxy-4-(piperidine-1-carbonyl)phenyl]-4-[(5-piperazin-1-yl-2-pyridyl)amino]-6H-1,6-naphthyridin-5-one] as the compound, how does the IC50 read?
A: 100 to 1000 nM

Q: How did the IC50 turn out when `O=C(c1ccc(-c2cc(Nc3ccc(N4CCC(O)CC4)cn3)c3c(=O)[nH]ccc3n2)c(F)c1)N1CCC(O)CC1` [I-140, 2-[2-fluoro-4-(4-hydroxy-piperidine-1-carbonyl)phenyl]-4-[[5-(4-hydroxy-1-piperidyl)-2-pyridyl]amino]-6H-1,6-naphthyridin-5-one] was run?
A: ≤ 100 nM

Q: `O=C(Nc1ccc(-c2cc(Nc3ccc(N4CCC(O)CC4)cn3)c3c(=O)[nH]ccc3n2)c(F)c1)C1CCCC1` [I-154, N-[3-fluoro-4-[4-[[5-(4-hydroxy-1-piperidyl)-2-pyridyl]amino]-5-oxo-6H-1,6-naphthyridin-2-yl]phenyl] cyclo-pentane carboxamide] was tested. Which IC50 did it give?
A: 100 to 1000 nM

Q: For `CC(C)c1cc(Nc2ccc(N3CCC(O)CC3)cn2)c2c(=O)[nH]ccc2n1` [I-9, 4-[[5-(4-hydroxy-1-piperidyl)-2-pyridyl]amino]-2-isopropyl-6H-1,6-naphthyridin-5-one], which IC50 is on record?
A: 100 to 1000 nM

Q: `O=C(c1ccc(F)c(-c2cc(Nc3ccc(N4CCC(O)CC4)cn3)c3c(=O)[nH]ccc3n2)c1)N1CCOCC1` [I-80, 2-[2-fluoro-5-(morpholine-4-carbonyl)phenyl]-4-[[5-(4-hydroxy-1-piperidyl)-2-pyridyl]amino]-6H-1,6-naphthyridin-5-one] was tested. Which IC50 did it give?
A: 100 to 1000 nM

Q: With `O=C(c1ccc(F)c(-c2cc(Nc3ccc(N4CCC(O)CC4)cn3)c3c(=O)[nH]ccc3n2)c1)N1CCCC1` [I-93, 2-[2-fluoro-5-(pyrrolidine-1-carbonyl)phenyl]-4-[[5-(4-hydroxy-1-piperidyl)-2-pyridyl]amino]-6H-1,6-naphthyridin-5-one] as the compound, how does the IC50 read?
A: ≤ 100 nM

Q: How did the IC50 turn out when `O=C(c1ccc(-c2cc(Nc3ccc(N4CCC(O)CC4)cn3)c3c(=O)[nH]ccc3n2)c(F)c1)N1CC2CCC(C1)O2` [I-142, 2-[2-fluoro-4-(8-oxa-3-azabicyclo [3.2.1]octane-3-carbonyl)phenyl]-4-[[5-(4-hydroxy-1-piperidyl)-2-pyridyl]amino]-6H-naphthyridin-5-one] was run?
A: ≤ 100 nM
